Laboratory results reported in ChEMBL document CHEMBL1143487, “Solid support synthesis of 6-aryl-2-substituted pyrimidin-4-yl phenols as anti-infective agents” (2005).
Values after ≈ are worked out from the molar mass of the structure shown. Active and inactive are the calls of the source. No cut-off for these calls is given here.

Columns and labels:
[1] = test system: Plasmodium falciparum; experiment: Minimum inhibitory concentration against Plasmodium falciparum; type: functional
[2] = test system: Mycobacterium tuberculosis; experiment: Minimum inhibitory concentration against Mycobacterium tuberculosis; - = inactive; type: functional, organism-based
[3] = test system: Mycobacterium tuberculosis; experiment: Minimum inhibitory concentration against Mycobacterium tuberculosis; type: functional

Row | SMILES | MIC [1] [µg/mL] | MIC [2] | MIC [3] [µg/mL]
1 | COc1ccc(-c2cc(-c3ccc(O)cc3)nc(N3CCN(Cc4ccccc4)CC3)n2)cc1OC | 0.5 (≈ 1.04 µM) | inactive | 
2 | COc1ccc(-c2cc(-c3ccc(O)cc3)nc(N3CCN(C)CC3)n2)cc1OC | 0.25 (≈ 0.615 µM) |  | 12.5 (≈ 30.8 µM)
3 | Nc1nc(-c2ccccc2)cc(-c2ccc(O)cc2)n1 | 10 (≈ 38 µM) | inactive | 
4 | COc1ccc(-c2cc(-c3ccc(O)cc3)nc(N3CCN(C)CC3)n2)cc1 | 0.5 (≈ 1.33 µM) |  | 25 (≈ 66.4 µM)
5 | COc1ccc(OC)c(-c2cc(-c3ccc(O)cc3)nc(N3CCN(c4ccccc4)CC3)n2)c1 | 2 (≈ 4.27 µM) | inactive | 
6 | Cc1ccc(-c2cc(-c3ccc(O)cc3)nc(N)n2)cc1 | 50 (≈ 180 µM) | inactive | 
7 | COc1ccc(OC)c(-c2cc(-c3ccc(O)cc3)nc(N3CCCC3)n2)c1 | 1 (≈ 2.65 µM) |  | 25 (≈ 66.2 µM)
8 | Cc1ccc(-c2cc(-c3ccc(O)cc3)nc(N3CCN(Cc4ccccc4)CC3)n2)cc1 | 2 (≈ 4.58 µM) | inactive | 
9 | COc1ccc(OC)c(-c2cc(-c3ccc(O)cc3)nc(N3CCN(C)CC3)n2)c1 | 0.25 (≈ 0.615 µM) |  | 12.5 (≈ 30.8 µM)
10 | Oc1ccc(-c2cc(-c3ccccc3)nc(N3CCN(Cc4ccccc4)CC3)n2)cc1 | 1 (≈ 2.37 µM) |  | 25 (≈ 59.2 µM)
11 | Cc1ccc(-c2cc(-c3ccc(O)cc3)nc(N3CCCC3)n2)cc1 | 2 (≈ 6.03 µM) | inactive | 
12 | COc1ccc(OC)c(-c2cc(-c3ccc(O)cc3)nc(N)n2)c1 | 10 (≈ 30.9 µM) |  | 25 (≈ 77.3 µM)
13 | COc1ccc(-c2cc(-c3ccc(O)cc3)nc(N3CCCCC3)n2)cc1OC | 1 (≈ 2.55 µM) |  | 25 (≈ 63.9 µM)
14 | COc1ccc(-c2cc(-c3ccc(O)cc3)nc(N)n2)cc1 | 50 (≈ 170 µM) | inactive | 
15 | Oc1ccc(-c2cc(-c3ccccc3)nc(N3CCN(c4ccccc4)CC3)n2)cc1 | 10 (≈ 24.5 µM) |  | 25 (≈ 61.2 µM)
16 | Cc1ccc(-c2cc(-c3ccc(O)cc3)nc(N3CCN(C)CC3)n2)cc1 | 1 (≈ 2.77 µM) |  | 25 (≈ 69.4 µM)
17 | COc1ccc(-c2cc(-c3ccc(O)cc3)nc(N3CCCC3)n2)cc1OC | 1 (≈ 2.65 µM) |  | 25 (≈ 66.2 µM)
18 | COc1ccc(-c2cc(-c3ccc(O)cc3)nc(N3CCN(Cc4ccccc4)CC3)n2)cc1 | 1 (≈ 2.21 µM) | inactive | 
19 | Oc1ccc(-c2cc(-c3ccccc3)nc(N3CCCC3)n2)cc1 | 2 (≈ 6.3 µM) |  | 25 (≈ 78.8 µM)
20 | Cc1ccc(-c2cc(-c3ccc(O)cc3)nc(N3CCCCC3)n2)cc1 | 2 (≈ 5.79 µM) | inactive | 
21 | COc1ccc(OC)c(-c2cc(-c3ccc(O)cc3)nc(N3CCCCC3)n2)c1 | 1 (≈ 2.55 µM) |  | 25 (≈ 63.9 µM)
22 | COc1ccc(-c2cc(-c3ccc(O)cc3)nc(N3CCN(c4ccccc4)CC3)n2)cc1 | 2 (≈ 4.56 µM) | inactive | 
23 | COc1ccc(-c2cc(-c3ccc(O)cc3)nc(N3CCN(c4ccccc4)CC3)n2)cc1OC | 1 (≈ 2.13 µM) | inactive | 
24 | COc1ccc(-c2cc(-c3ccc(O)cc3)nc(N)n2)cc1OC | 10 (≈ 30.9 µM) |  | 12.5 (≈ 38.7 µM)
25 | CN1CCN(c2nc(-c3ccccc3)cc(-c3ccc(O)cc3)n2)CC1 | 0.5 (≈ 1.44 µM) |  | 25 (≈ 72.2 µM)
26 | COc1ccc(-c2cc(-c3ccc(O)cc3)nc(N3CCCC3)n2)cc1 | 1 (≈ 2.88 µM) | inactive | 
27 | COc1ccc(-c2cc(-c3ccc(O)cc3)nc(N3CCCCC3)n2)cc1 | 0.5 (≈ 1.38 µM) | inactive | 
28 | COc1ccc(OC)c(-c2cc(-c3ccc(O)cc3)nc(N3CCN(Cc4ccccc4)CC3)n2)c1 | 0.25 (≈ 0.518 µM) |  | 25 (≈ 51.8 µM)
29 | Cc1ccc(-c2cc(-c3ccc(O)cc3)nc(N3CCN(c4ccccc4)CC3)n2)cc1 | 10 (≈ 23.7 µM) | inactive | 
30 | Oc1ccc(-c2cc(-c3ccccc3)nc(N3CCCCC3)n2)cc1 | 2 (≈ 6.03 µM) |  | 25 (≈ 75.4 µM)
